# Values quoted from earlier work as cited in patent US20040142847A1, “Detergent tablets with polyurethane coating” (priority 2002, published 2004).
# Read-outs that look alike come from different tables or passages of the source.
# Assays:
# [1] = after heating the solution at 100° C. for two hours
# [2] = for amount of the anhydrous salt that dissolves in 100 g of water: per 100 g of water
# [3] = 1% strength solution at 25°
# [4] = 20° C., listing of preferred solubilizers
# [5] = 20° C., listing of suitable solubilizers
# [6] = 25° C., listing of preferred solubilizers
compound,measurement,setting,value
O=P([O-])([O-])OP(=O)([O-])OP(=O)([O-])[O-].[Na+].[Na+].[Na+].[Na+].[Na+] [pentasodium triphosphate],diphosphate produced by hydrolysis,[1],~15%
same,orthophosphate produced by hydrolysis,[1],about 8%
same,amount of the anhydrous salt that dissolves in 100 g of water,[2]; 60°,about 20 g
same,amount of the anhydrous salt that dissolves in 100 g of water,[2]; 100°,around 32 g
same,amount of the anhydrous salt that dissolves in 100 g of water,[2]; room temperature,About 17 g
[Cl-].[Cs+] [Cesium chloride],solubility in water,[2]; [4],1800 mg/mL
same,solubility in water,[2]; [5],1800 mg/mL
O=C(O)/C=C\C(=O)O [Maleic acid],solubility in water,[2]; [6],788 mg/mL
NC(N)=O [Urea],solubility in water,[2]; [4],1080 mg/mL
same,solubility in water,[2]; [5],1080 mg/mL
O=C[C@H](O)[C@@H](O)[C@@H](O)[C@H](O)CO [D(+)-Galactose],solubility in water,[2]; [6],680 mg/mL
O=P([O-])([O-])OP(=O)([O-])[O-].[K+].[K+].[K+].[K+] [Potassium diphosphate],pH of the 1% strength solution,[3],10.4
O=C(O)CC(O)C(=O)O (racemic) [DL-Malic acid],solubility in water,"[2]; 26° C., listing of preferred solubilizers",1440 mg/mL
same,solubility in water,"[2]; 26° C., listing of suitable solubilizers",1440 mg/mL
[Cl-].[K+] [Potassium chloride],solubility in water,[2]; [4],340 mg/mL
same,solubility in water,[2]; [5],340 mg/mL
Sodium polyphosphate,solubility in water,[2]; [5],1000 mg/mL
[Cl-].[Cl-].[Zn+2] [Zinc chloride],solubility in water,[2]; [4],3680 mg/mL
same,solubility in water,[2]; [5],3680 mg/mL
O=C(CO)[C@@H](O)[C@H](O)[C@@H](O)CO [L(−)-sorbose],solubility in water,"[2]; 17° C., listing of preferred solubilizers",550 mg/mL
